# Entries after “also recorded” stand apart in the source; their conditions may differ.
# Tested on: cartilage disks of juvenile rabbits, IL-1 stimulated GAG release
# Assay: Cartilage culture test (IL-1 induced GAG release)
# Format: cell-based, rabbit
# Conditions: stated in text for the compound of FIG. 1
# Description: Cartilage disks (2 mm in diameter) were prepared from the cartilage of juvenile rabbits (3 weeks). Cartilage disks were transferred and cultured individually in the wells of a 48-well tissue culture plate containing DMEM/10% FCS for over 3 days at 37° C. In the night before the test, the medium of DMEM was changed to that not containing FCS. Next morning, IL-1 (4 ng/ml) and a test compound were added to the plate. It is provided that some wells of a plate contain only IL-1 (not containing test compound) and that some wells are vehicle (not containing IL-1 and test compound). After 4 days from the IL-1 addition, the amount of released glycosaminoglycan (GAG) was measured after collecting culture supernatant and cartilage disks.
# Quantitation of GAG release was as follows; the weight of the cartilage disk was measured, then 200 μl of a papain digestion buffer solution (1 mM EDTA, 2 mM DTT, 20 mM Tris, (pH 7.0), Papain (300 μg/ml)) was added to each well and the plate containing the digestive solution was incubated for 2 h at 65° C. 50 μl of 100 mM Iodoacetatic acid (pH 7.0) was added for stopping the digestion. The extracts of cartilage are centrifuged at 12000 rpm for 5 min. […] The amount of released GAG in the transferred solution was quantitated by using a proteoglycan & glycosaminoglycan assay kit (Blyscan, Funakoshi Co., Ltd, Tokyo, Japan).
row,SMILES,GAG value
1,CC(C)C(NS(=O)(=O)c1ccc(Oc2ccccc2)cc1)C(=O)NO (stereo not shown) [XXI],87

# Tested on: aggrecanase
# Assay: Aggrecanase inhibitory activity test (western blot with anti ARGSV antibody)
# Format: cell-based, rabbit
# Conditions: 4 days culture supernatant containing both IL-1 and test compound
# Description: To 50 μl of the above 4 days cultured supernatant (not including IL-1 and a test compound, including IL-1 only, including both IL-1 and a test compound) was added a 5 volume solution of 95% EtOH containing 1.3% (w/v) potassium acetate. After the mixed solution was stood at −20° C. for 30 min, the solution was centrifuged to obtain a precipitation. The precipitation was solubilized in 100 μl of 25 mM Tris-hydrochloric acid buffer solution (pH7.6) containing 5 mM calcium chloride*0.15M sodium chloride*0.0025% Brij35. After addition of 5 μl of 250 mM ethylenediaminetetraacetic acid, and 2.5 μl each of 1M sodium acetate (pH6.0) and 1M Tris-hydrochloric acid (pH7.9) to the solution, 2.5 μl of 0.02 units/μl Chondroitinase ABC and 1.0 μl of 0.1 units/μl Keratanase (Both are Seikagaku Kogyo, Japan) were added and the mixture was incubated at 37° C. for 16 h to remove GAG. […]
# In the culture supernatant containing only IL-1, the 250 kDa aggrecanase-generated fragment of aggrecan which was recognized by anti N-terminus neoepitope antibody was observed, which was not detected in the supernatant not containing IL-1 and a test compound (XXI). On the other hand, in the culture supernatant containing both IL-1 and a test compound (XXI), the 250 kDa aggrecanase-generated fragment was not detected.
row,SMILES,"250 kDa aggrecanase-generated fragment of aggrecan (new N-terminus ARGSV), western blot"
1,CC(C)C(NS(=O)(=O)c1ccc(Oc2ccccc2)cc1)C(=O)NO (stereo not shown) [XXI],inhibits the production of aggrecanase-generated new N-terminus (ARGSV); also recorded: not detected

# Molecular target: T1, MMP-13 (Homo sapiens, UniProt P45452)
# T1 construct: catalytic domain (^104Tyr˜^267Gly) was amplified with RT-PCR; His-tag; enterokinase digestion-site; made in house
# Assay: Assay for inhibitory activities on MMP-13
# Format: biochemical
# Conditions: catalytic domain, substrate MOCAc-Pro-Leu-Gly-Leu-A2Pr(DNP)-Ala-Arg-NH2; read-out: MMP-13 (IC50μM)
# Description: In regard to MMP-13, mRNA was prepared from carcinoma cell SW1353 derived from human cartilage stimulate by IL-1, TNF and catalytic domain (^[…]) was amplified with RT-PCR. This was cloned in Escherichia. coli expression vector […] inserted with His-tag sequence and enterokinase digestion-site, induced and expressed by IPTG (Isopropyl-β-D-thiogalactopyranoside) and expressed in a insoluble fraction. Isolation of MMP-13 from an insoluble fraction was carried out by dissolving in modifier (6M urea) by a usual method and purification with metal chelate chromatography (Ni […] Sepharose). […] The enzymatic activity on MMP was analyzed by the method described in “C. Graham Knight, Frances Willenbrock and Gillian Murphy: A novel coumarin-labelled peptide for sensitive continuous assays of the matrix metalloproteinases: […] The substrate: MOCAc-[…] was purchased from Peptide Institute, Inc., Osaka, Japan.
row,IC50,SMILES
1,0.182 µM,CCc1ccc(-c2nc(-c3ccc(S(=O)(=O)N[C@H](Cc4ccccc4)C(=O)O)s3)no2)cc1 [Compound N-8]
2,> 10 µM,O=C(O)[C@H]1[C@@H]2CC[C@@H](C2)[C@@H]1NS(=O)(=O)c1ccc(-c2ccon2)s1 [Compound O-1]
3,0.34 µM,O=C(O)[C@H]1[C@@H]2CC[C@@H](C2)[C@@H]1NS(=O)(=O)c1ccc(-c2ccc(N3CCCC3)cc2)s1 [Compound O-2]
4,0.353 µM,CN(C)c1ccc(-c2ccc(S(=O)(=O)N[C@H]3CCC[C@@H]3C(=O)O)s2)cc1 [Compound O-3]
5,0.0114 µM,CCCCc1ccc(-n2nnc(-c3ccc(S(=O)(=O)NC4(C(=O)O)CCCCC4)cc3)n2)cc1 [Compound O-4]
6,> 10 µM,Cc1ccc(-c2ccc(-c3ccc(S(=O)(=O)NCCCC(=O)O)cc3)s2)cc1 [Compound O-5]
7,3.14 µM,O=C(O)CCCNS(=O)(=O)c1ccc(-c2ccc(N3CCCC3)cc2)s1 [Compound O-6]
8,0.883 µM,CSc1ccc(-c2ccc(S(=O)(=O)N3CCNC(=O)C3C)cc2)cc1 (stereo not shown) [Compound O-7]
9,2.99 µM,CC1C(=O)NCCN1S(=O)(=O)c1ccc(-c2ccc(N3CCOCC3)cc2)s1 (stereo not shown) [Compound O-8]
10,> 10 µM,Cc1ccc(C#Cc2ccc(S(=O)(=O)Nc3cc(Cl)ccc3C(=O)O)s2)cc1 [Compound O-9]
11,0.6 µM,O=C(O)[C@@H]1[C@@H](NS(=O)(=O)c2ccc(-c3ccc(N4CCCC4)cc3)s2)[C@H]2C=C[C@@H]1C2 [Compound O-10]

# From US20050227994A1, “Decomposition inhibitor for extracellular matrix of cartilage” (Shionogi & Co., Ltd., priority 2002, published 2005)
